Experiments:
Type in all cases: in vivo
[1] = system: Soybeans (GLXMA); assay: Crop injury after spray with crop rows covered by rain gutters, soybeans (Example 2, Table 6); details: MSO + AMS
Description: In a second set of trials Soybeans (GLXMA) were planted in a standard planting system with 30 in row spacing and grown until they reached a BBCH growth stage of 11-12 or roughly 12 cm average height.
Application was made using a CO2 pressurized backpack sprayer and a handheld 6 nozzle boom, operating at 2.5 bar. The application was made at damp soil conditions and a windspeed of 0-15 km/h. The crop rows were covered during the actual spray application using upside down metal rain gutters (10 cm×10 cm depth×width) covering the crop and the soil below of about 5 cm on either side from the crop row center. All treatments included 1.5 L of a methylated seed oil (MSO) and 2 Kg/ha Ammonium sulfate (AMS) salt source and were mixed into 1 L fraction of an equivalent to 200 L/ha spray solution.
(§1) […] The crop injury was rated were visually on a percentage scale in relation to the untreated control (100%=all plants dead; 50%=green plant biomass reduced by 50%, and 0%=no discernible difference=like control plot).

[2] = system: Pepper plants (Capsicum frutescens L., CPSFR); assay: Crop injury after shielded spray around transplanted pepper plants (Example 3, Table 7)
Description: In a third set of trials pepper plants (Capsicum frutescens L., CPSFR) were manually transplanted at a growth stage of BBCH 13 in a field and grown until they reached BBCH growth stage of 14 or roughly 10 cm average crop height.
Application was made using a compressed air sprayer and a handheld 1 nozzle spray lance. The nozzle was shielded by a spray shield to prevent unintended spray drift during application. The application was made at damp soil conditions and calm wind around each single pepper plant. The crop plants were shielded from spray drift during application and spray slurry reached only the soil and weed cover surrounding the pepper plants.
as §1

[3] = system: Soybeans (GLXMA); assay: Crop injury after hooded band spot-spray between crop rows, soybeans (Example 1, Table 5); details: 1440 g a.i./ha, MSO + AMS
Description: Sunflower (HELAN), Corn (ZEAMD) and Soybeans (GLXMA) were planted in a standard planting system with 30 in row spacing and grown until they reached a BBCH growth stage of 16-18; 12-13 and 14, respectively.
Application was made using a CO2 pressurized backpack sprayer and a handheld two nozzle boom, operating at 2.75 bar. Each of the nozzles (TeeJet Extended Air Induction nozzle 0015) was equipped with a plastic hood covering a 38 cm band left and right of each crop row and preventing unintended spray drift outside the band. The spray solution covered a band of roughly 38 cm on either side of the crop row with an average distance 8 cm to the row center and 2-10 cm distance between soil surface and lower end of the spray shield. The application was made at damp soil conditions and a windspeed of 0-10 km/h. All treatments included 1.5 L of an methylated seed oil (MSO) and 2 Kg/ha Ammonium sulfate (AMS) salt source and were mixed into 1 L fraction of an equivalent to 187 L/ha spray solution.
The crop injury assessments were conducted as visual assessments at 15, 28 and 45 days after application (DAA) in case of Sunflower and soybeans and at 14 and 27 DAA in case of com. Also in case of Table 5 assessments were done in soybeans at 15, 25 and 44 DAA. The crop injury was rated were visually on a percentage scale in relation to the untreated control (100%=all plants dead; 50% =green plant biomass reduced by 50%, and 0%=no discernible difference=like control plot).

Measured: Crop injury [% untreated]

C=CC1(C(=O)NC2COC(C(=O)OC)C2)CC(c2cc(F)cc(F)c2)=NO1 (mixture of isomers) [A 1.68]
0 % untreated: [1]; 100 g a.i./ha, 7 DAA | [1]; 100 g a.i./ha, 15 DAA | [1]; 100 g a.i./ha, 28 DAA | [1]; 100 g a.i./ha, 45 DAA | [1]; 200 g a.i./ha, 7 DAA | [1]; 200 g a.i./ha, 15 DAA | [1]; 200 g a.i./ha, 28 DAA | [1]; 200 g a.i./ha, 45 DAA | [2]; 100 g a.i./ha, 5 DAA | [2]; 100 g a.i./ha, 7 DAA | [2]; 100 g a.i./ha, 14 DAA | [2]; 150 g a.i./ha, 5 DAA | [2]; 150 g a.i./ha, 7 DAA | [2]; 150 g a.i./ha, 14 DAA

O=C(O)CNCP(=O)(O)O [Glyphosate, glyphosate, reference compound]
0 % untreated: [1]; 1440 g a.i./ha, 7 DAA | [1]; 1440 g a.i./ha, 15 DAA | [1]; 1440 g a.i./ha, 28 DAA | [1]; 1440 g a.i./ha, 45 DAA | [3]; 15 DAA | [3]; 25 DAA | [3]; 44 DAA

Source: patent US20240324597A1, “Method For Spot-Treatment Application Against Weeds” (Monsanto Technology LLC, priority 2021, published 2024)
